Data published in patent publication US10031128B2, “Screening method, screening kit and analysis program” (National Institutes for Quantum and Radiological Science …, priority 2012, dated 2018).
Where two headings read alike, the source gives them in different places.

System: rat thymocytes
Format: cell-based
Details: 4 h, pH 6.8
Procedure: As Example 1, an example using thymocytes as lymphoid cells will be described. In this example, rat thymocytes are used. A rat is suited for studies of screening and the like because a rat has the thymus larger than that of a mouse, and a large quantity of thymocytes corresponding to 2000 to 20000 samples is obtained from one rat.
(1) First, extract the thymus surgically from a rat.
(2) The extracted thymus is washed lightly in PBS. This washing may be performed for 1 minute to 5 minutes, and actually for 2 minutes to 3 minutes merely for washing out excess blood or tissues.
(3) The washed thymus is put into a RPMI 1640 medium supplemented with approximately 10% FBS (fetal bovine serum) (having subjected to an inactivation treatment). As the inactivation treatment, a heat treatment at 56° C. is performed for 30 minutes. In the example, the RPMI 1640 medium is 500 ml (ml is a unit symbol for milliliter, the same shall apply hereinafter), and FBS is 55 ml. Thereafter, the thymocytes are kept in the RPMI 1640 medium supplemented with serum to improve the separating ability of the presence or absence of condensation, and improve the measurement accuracy.
(4) Thymocytes are squeezed out of the thymus with tweezers, and passed through mesh to remove unnecessary contaminants and to disassemble the thymocytes. The culture temperature during this treatment is 4° C., and pH is 6.8. The amount of the medium used during cell purification is approximately 20 ml.
(5) The number of cells is counted, and a required number of the cells are seeded on a plate. In the experiment of this example, 5×10^5 cells/well are seeded using a 48-well plate. Also, since measurement is performed for about 20 samples in the experiment of this example, approximately 10 ml of a medium is used. As the medium, a medium of the volume conforming to the container is required. For example, when a 48-well plate is used, approximately 500 μl/well (microliter per well) is required in seeding cells on the plate. When a 96-well plate is used, approximately 50 to 200 μl/well is required in seeding cells on the plate. When one 96-well plate is used, up to approximately 20 ml of a medium is required.
In this example, (I) irradiation with 2 Gy X-ray, (II) administration with a 1 mM (mM is a unit symbol for millimolar, the same shall apply hereinafter) catechin derivative, (III) preliminary administration with a 1 mM catechin derivative and irradiation with 2 Gy X-ray, (IV) administration with 100 μM epigallocatechin (μM is a unit symbol for micromolar, the same shall apply hereinafter), (V) administration with 10 μM vitamin C, or (VI) administration with 100 μM vitamin C was performed. The temperature of the medium in performing this treatment can be 4° C. to room temperature, and is preferably approximately 4° C. so as not to promote the reaction. Gray (Gy) is a unit for absorbed dose of radiation. The absorbed dose when 1 joule of radiation energy is absorbed in 1 kilogram of a substance by radiation is defined as 1 gray.
The samples of (I) to (VI) in Step 2 were incubated for 4 hours. During the incubation, the medium is at a temperature of 37° C., at a CO2 concentration of 5%, under humidification, and at pH 6.8.
After the incubation in Step 3, measurement was performed by using FACSCALIBUR™ (a flow cytometry system). The time required for the measurement is about one hour. […]
FIG. 2(A) to FIG. 2(D), and FIG. 3(A) to FIG. 3(D) are cell size measurement graphs showing measured cell sizes. […]

peak of cell size (cell size measurement graph) (10 μM) | Compound | peak of cell size (cell size measurement graph) (100 μM) | another peak at apoptotic cell peak position (cell size) (10 μM) | another peak at apoptotic cell peak position (cell size) (100 μM)
– | Oc1cc(O)c2c(c1)O[C@H](c1cc(O)c(O)c(O)c1)[C@H](O)C2 [epigallocatechin] | around 300 | – | –
around 400 | O=C1O[C@H]([C@@H](O)CO)C(O)=C1O [vitamin C] | around 400 | around 250 | around 250
